According to patent US6048887A, “Substituted pyrroles” (Hoffmann-La Roche Inc., priority 1999, dated 2000):

Columns and labels:
Format in all cases: cell-based
HCT-116 = test: Antiproliferative Activity In Cell Line HCT-116 (MTT); conditions: Homo sapiens, 96 h, 4 days post addition, average of at least three separate experiments
Description: [The procedure below names another cell line; the source says it served here with some conditions changed.] (§1) The estrogen receptor negative epithelial breast carcinoma line (MDA-MB-435) was purchased from American Type Cell Culture Collection (ATCC; Rockville, Md.) and was grown in the medium recommended by ATCC. For analysis of the effect of the test compounds on growth of these cells, the cells were plated at 2000 cells per well in a 96-well tissue culture plate ("test plate"), and were incubated overnight at 37° C. with 5% CO2. The next day, the test compounds were dissolved in 100% dimethyl sulfoxide (DMSO) to yield a 10 mM stock solution. Each compound was diluted with sterile distilled water to 1 mM and then was added to triplicate wells of a 96-well "master plate" containing medium in a sufficient quantity to yield a final concentration of 40 μM. The compounds were serially diluted in medium in the "master plate." One-fourth final volume of the diluted compounds was transferred to duplicate "test plates." DMSO was added to a row of "control cells" such that; the final concentration of DMSO in each well was 0.1%. The "test plates" were returned to the incubator, and 3 days post addition of test compound, one "test plate" was analyzed as described below. Similarly, 5 days after addition of test compound, the second "test plate" also was analyzed as described below.
(§2) 3-(4,5-dimethylthiazole-2-yl)-2,5-diphenyl-2H-tetrazolium bromide (thiazolyl blue; MTT) was added to each well to yield a final concentration of 1 mg/ml. The plate was then incubated at 37° C. for 3 hours. The MTT-containing medium was then removed and 50 μl 100% ethanol was added to each well to dissolve the resulting formazan metabolite. […] Absorbencies were read in a microtiter plate reader (Molecular Dynamics) at a wavelength of 570 nm with a 650 nm reference. Percent inhibition was calculated by subtracting the blank from all wells, then subtracting the division of the average absorbance of each test triplicate by the average of the controls from 1.00. Inhibitory concentrations (IC50 and IC90) were determined from the linear regression of a plot of the logarithm of the concentration versus the percent inhibition. […]

MDA-MB-435 cells = test: Effect Of Test Compounds On Cell Cycle (propidium iodide, FACS); conditions: for % Of Cells In Each Cell Cycle Phase: G1 / % Of Cells In Each Cell Cycle Phase: G2/M / % Of Cells In Each Cell Cycle Phase: S: day 1 post addition; for effect on cell cycle (in words): statement in words, summarizing Tables I-IV
Description: For analysis of the effect of the compounds on cell cycle progression, MDA-MB-435 cells (ATCC; Rockville, Md.) were plated at 1×10^6 cells/10 mls per 10 cm dish in the following growth medium: RPMI 1640+10% Heat-Inactivated Fetal Bovine Serum, 2 mM L-glutamine and 50 U/ml pen-strep (all from GIBCO/BRL, Gaithersburg, Md.). The cells were incubated overnight at 37° C. with 5% CO2. The next day, 10 μl of each of the compounds to be tested, in a 100% DMSO solution, was added to individual dishes to obtain /1000× final concentration of the stock solution. In addition, 10 μl 100% DMSO was added to a control dish. The final concentration of DMSO in all plates, including the control, was 0.1%. The plates were returned to the incubator.
Thereafter, at various periods of time, the medium in each plate was removed to a 50 ml centrifuge tube. The cell layer remaining in the dish was then washed with 5 ml of phosphate buffered saline (PBS; GIBCO/BRL). The PBS was removed and combined with the medium in the appropriate tube. The cells were trypsinized for 5 minutes at 37° C., and the solution was collected and combined with the medium and PBS in the appropriate tubes. The tubes were then centrifuged for 5 minutes at 1200 rpm. The cells were fixed by removing the supernatant, tapping the tube to distribute the pellet, then adding 5 mls of cold 70% ethanol while vortexing gently. The cells were then stored at -20° C. for>24 hours.
The cell-containing tubes were taken out of freezer and allowed to sit at room temperature for 20-30 minutes. The tubes were centrifuged at 3000 rpm for 5 minutes. The supernatant was removed, the pellets were washed with 5 ml PBS, and the tubes were centrifuged as above. Subsequently, the supernatant was removed, and the pellet was resuspended in 0.5 ml PBS. Thereafter, 0.5 ml RNAse A (1 mg/ml in PBS) was added to each tube, and the tubes were incubated at 37° C. for 15 minutes. 100 μl propidium iodide (Sigma, St. Louis, Mo.) (1 mg/ml in PBS) was added to each tube, and the tubes were then incubated at room temperature for 2-3 minutes. Each resulting solution was passed through a filter cap tube (Becton Dickinson, San Jose, Calif., #2235).
Samples were read in a FACSort machine (Becton-Dickinson) using the manufacturer's CellQUEST program, and analyzed with the manufacturer is ModFIT software. This measurement provides an indication of the percent of cells in each of the following phases: G0/G1, DNA synthesis (S) and G2/M phases.
The results of a cell cycle progression experiment analyzed at day 1 post addition of test compounds I, II and III are summarized below in Table IV.

SW480 = test: Antiproliferative Activity In Cell Line SW480 (MTT); conditions: Homo sapiens, 144 h, 6 days post addition, average of at least three separate experiments
Description: [The procedure below names another cell line; the source says it served here with some conditions changed.] as §1, §2

MDA-MB-435 = test: Antiproliferative Activity In Cell Line MDA-MB-435 (MTT); conditions: Homo sapiens, average of at least three separate experiments
Description: as §1
3-(4,5-dimethylthiazole-2-yl)-2,5-diphenyl-2H-tetrazolium bromide (thiazolyl blue; MTT) was added to each well to yield a final concentration of 1 mg/ml. The plate was then incubated at 37° C. for 3 hours. The MTT-containing medium was then removed and 50 μl 100% ethanol was added to each well to dissolve the resulting formazan metabolite. […] Absorbencies were read in a microtiter plate reader (Molecular Dynamics) at a wavelength of 570 nm with a 650 nm reference. Percent inhibition was calculated by subtracting the blank from all wells, then subtracting the division of the average absorbance of each test triplicate by the average of the controls from 1.00. Inhibitory concentrations (IC50 and IC90) were determined from the linear regression of a plot of the logarithm of the concentration versus the percent inhibition.

| IC50 (HCT-116) [nM] | IC50 (SW480) [nM] | IC50 (MDA-MB-435) [nM] | SMILES | % Of Cells In Each Cell Cycle Phase: G1 (MDA-MB-435 cells; 0.03 μM) [%] | % Of Cells In Each Cell Cycle Phase: G2/M (MDA-MB-435 cells; 0.03 μM) [%] | % Of Cells In Each Cell Cycle Phase: S (MDA-MB-435 cells; 0.03 μM) [%] | % Of Cells In Each Cell Cycle Phase: G1 (MDA-MB-435 cells; 0.1 μM) [%] | % Of Cells In Each Cell Cycle Phase: G2/M (MDA-MB-435 cells; 0.1 μM) [%] | % Of Cells In Each Cell Cycle Phase: S (MDA-MB-435 cells; 0.1 μM) [%] | effect on cell cycle (in words) (MDA-MB-435 cells) | other results |
| --- | --- | --- | --- | --- | --- | --- | --- | --- | --- | --- | --- |
| 170 | 200 | 30 | Cn1cc(C2=C(c3c[nH]c4ccccc34)C(=O)NC2=O)c2ccc([N+](=O)[O-])cc21 [Compound I, 3-(1H-Indol-3-yl)-4-(1-methyl-6-nitro-1H-indol-3-yl)-pyrrole-2,5-dione] | 45.30 | 20.03 | 34.67 | 8.27 | 66.52 | 25.21 | cause an accumulation of cells in the G2/m phase of the cell cycle | % Of Cells In Each Cell Cycle Phase: G1 (MDA-MB-435 cells; 0.01 μM): 44.95%; % Of Cells In Each Cell Cycle Phase: G2/M (MDA-MB-435 cells; 0.01 μM): 14.00%; % Of Cells In Each Cell Cycle Phase: S (MDA-MB-435 cells; 0.01 μM): 41.04% |
| 230 | 220 | 50 | Cn1cc(C2=C(c3cn(CO)c4ccccc34)C(=O)NC2=O)c2ccc([N+](=O)[O-])cc21 [Compound II, 3-(1-Hydroxymethyl-1H-indol-3-yl)-4-(1-methyl-6-nitro-1H-indol-3-yl)-pyrrole-2,5-dione] | 45.45 | 16.50 | 38.06 | 15.54 | 60.40 | 24.06 | cause an accumulation of cells in the G2/m phase of the cell cycle | % Of Cells In Each Cell Cycle Phase: G1 (MDA-MB-435 cells; 0.3 μM): 1.11%; % Of Cells In Each Cell Cycle Phase: G2/M (MDA-MB-435 cells; 0.3 μM): 73.90%; % Of Cells In Each Cell Cycle Phase: S (MDA-MB-435 cells; 0.3 μM): 24.99% |
| 1660 | 1860 | 600 | Cn1cc(C2=C(c3c[nH]c4cc([N+](=O)[O-])ccc34)C(=O)NC2=O)c2ccccc21 [Compound III, 3-(1-Methyl-1H-indol-3-yl)-4-(6-nitro-1H-indol-3-yl)-pyrrole-2,5-dione] |  |  |  |  |  |  | cause an accumulation of cells in the G2/m phase of the cell cycle | % Of Cells In Each Cell Cycle Phase: G1 (MDA-MB-435 cells; 1 μM): 27.21%; % Of Cells In Each Cell Cycle Phase: G2/M (MDA-MB-435 cells; 1 μM): 42.60%; % Of Cells In Each Cell Cycle Phase: S (MDA-MB-435 cells; 1 μM): 30.19%; % Of Cells In Each Cell Cycle Phase: G1 (MDA-MB-435 cells; 3 μM): 3.26%; % Of Cells In Each Cell Cycle Phase: G2/M (MDA-MB-435 cells; 3 μM): 47.99%; % Of Cells In Each Cell Cycle Phase: S (MDA-MB-435 cells; 3 μM): 48.75%; % Of Cells In Each Cell Cycle Phase: G1 (MDA-MB-435 cells; 10 μM): 10.41%; % Of Cells In Each Cell Cycle Phase: G2/M (MDA-MB-435 cells; 10 μM): 54.34%; % Of Cells In Each Cell Cycle Phase: S (MDA-MB-435 cells; 10 μM): 35.25% |
